Laboratory results published in patent US6251898A, “Medical use of fluorenone derivatives for treating and preventing brain and spinal injury” (Questcor Pharmaceuticals, Inc., priority 1999, dated 2001).

Tested on: UC11-MG human astrocytoma cells
Assay: D-aspartate (excitotoxin) release by hypo-osmotically stressed astrocytoma cells
Format: cell-based
Settings: for IC50: Homo sapiens, UC11MG, hypo-osmotic stress, about 145 mOsm, AUC-based, read-out: IC50 value (suppression of excitotoxin / D-aspartate release by stressed astrocyte cells); for Comparative potency: relative to L-644,711 (100% = benchmark); for Fold potency versus L-644,711: inhibition of aspartate release, compared to L-644,711
Text: The in vitro tests described in this example used UC11-MG human astrocytoma cells, obtained from the University of Cincinnati, and described in Liwnicz et al 1986 and Lomneth et al 1989. Cell culture reagents (including RPMI 1640, fetal bovine serum, trypsin, and gentamicin) were obtained from Gibco (Gaithersburg, Md.). Radiolabelled D-[2,3-^3 H]aspartate was obtained from Amersham Life Sciences (Buckinghamshire, England). ScintiVerse II scintillation fluid was obtained from Fisher Scientific (Pittsburgh, Pa.). All other chemicals were obtained from Sigma Chemical Co. (St. Louis, Mo.). Osmolarities of solutions were measured using the Advance DigiMatic Osmometer Model 3D II (Advanced Instruments Inc., Mass.).
The UC11-MG astrocytoma cells were cultured in 75 ml vented flasks at 37° C. inside a humidified incubator in 5% CO2 /95% air. The cells were grown in RPMI Medium 1640 supplemented with 10% fetal bovine serum and […] gentamicin. At approximately 90% confluence, the cells were detached and suspended using a 0.0625% trypsin solution in Buffer A (137 mM NaCl, 5.37 mM KCl, 5.55 mM glucose, 4.17 mM NaHCO3, and 0.54 mM EDTA disodium salt, pH 7.4). The cells were then plated onto 6-well tissue culture plates at a seeding ratio of 4 plates per flask and 4 ml of cell-media suspension per well. The plated cells were used in experiments the next day at approximately 90% confluence. Plates that appeared to be more than 95% confluent were not used, because higher levels of confluence led to uncontrollable differentials in exposure of the cells to culture media and labelled aspartate. All tests were performed in triplicate. All media collections were done at 5 minute intervals, using pipettes, and were followed by promptly loading fresh buffer into each well before any drying occurred. All buffer samples collected in this manner were loaded into scintillation vials, mixed with 5 ml scintillation fluid, and counted for 1 minute in a scintillation counter (Beckman LS8000, Fullerton, Calif.).
Prior to D-aspartate exposure, the wells were washed three times under sterile conditions with 3 ml of 37° C. Buffer B (122 mM NaCl, 3.3 mM KCl, 1.2 mM CaCl2, 0.4 mM MgSO4, 1.2 mM KH2 PO4, 25 mM Hepes, 10 mM glucose, pH 7.4).
The cells were then loaded with 0.5 μCi/ml of D-aspartate, and incubated at 37° C. for 30 min. Cells were then washed four times with Buffer B, and the last washing fluid was left on the cells. The plates were then placed on an orbital shaker and maintained at 37° C.
Baseline aspartate release levels (prior to drug treatment) were determined by incubating the cells with normal Buffer B (285 mOsm) for 15 minutes, while buffer was collected every 5 minutes.
After the buffer was collected from a well at the 15 minute mark, the next set of normal Buffer B added to that well contained a test compound at a known concentration; each compound was tested over a range of concentrations. Cells were then incubated for two 5 minute intervals with solutions of test compounds in normal Buffer B. In some tests which used buffers containing relatively high concentrations of a test drug with limited solubility in water, DMSO was added to the mixture to increase the solubility of the compound in water.
Beginning at the 25-minute mark, the cells were stimulated to begin releasing aspartate by loading a well with hypo-osmotic buffer, prepared by diluting Buffer B with an equal volume of distilled and deionized H2 O, resulting in an osmolarity of about 145 mOsm. This hypo-osmoticsolution caused the cells to begin taking in excess water, to try to reestablish the normal osmotic gradients that exist across the cell membranes. The water-induced swelling and stress then began to induce release of aspartate by the cells, and the amount of aspartate released by the swollen astrocyte cells was measured by removing the buffer every 5 minutes and testing it in a scintillation counter.

Compound | IC50 | Comparative potency | Fold potency versus L-644,711
CCC[C@]12CCC(=O)C=C1c1c(cc(OCC(=O)NCC(OC)OC)c(Cl)c1Cl)C2 [GERI-AmE1, R(+)-N-[2,2-(dimethoxy)-ethyl][(5,6-dichloro-2,3,9,9a-tetrahydro-3-oxo-9a-propyl-1H-fluoren-7-yl)oxy]acetamide] | 19.4 µM | 1,358% | –
CCC[C@]12CCC(=O)C=C1c1c(cc(OCC(=O)NCc3ccccc3)c(Cl)c1Cl)C2 [GERI-AmE3, R(+)-N-benzyl-[(5,6-dichloro-2,3,9,9a-tetrahydro-3-oxo-9a-propyl-1H-fluoren-7-yl)oxy]acetamide] | 31.9 µM | 826% | –
CCC[C@]12CCC(=O)C=C1c1c(cc(OCC(=O)NCc3ccccn3)c(Cl)c1Cl)C2 [GERI-AmE4, R(+)-N-[(2-pyridylmethyl][5,6-dichloro-2,3,9,9a-tetrahydro-3-oxo-9a-propyl-1H-fluoren-7-yl)oxy]acetamide] | 11.6 µM | 2,272% | –
CCC[C@]12CCC(=O)C=C1c1c(cc(OCC(=O)NCCCn3ccnc3)c(Cl)c1Cl)C2 [GERI-AmE5, R(+)-N-[3-(1-imidazolyl)-propyl][(5,6-dichloro-2,3,9,9a-tetrahydro-3-oxo-9a-propyl-1H-fluoren-7-yl)oxy]acetamide] | 39.8 µM | 662% | ~7 fold
CCC[C@]12CCC(=O)C=C1c1c(cc(OCC(CO)(CO)CO)c(Cl)c1Cl)C2 [GERI-E1, R-(+)-5,6-dichloro-7-[3-hydroxy-2,2-bis-(hydroxymethyl)propyloxy]-9a-propyl-2,3,9,9a-tetrahydro-1H-fluoren-3-one] | 29.5 µM | 893% | –
CCC[C@]12CCC(=O)C=C1c1c(cc(OCc3ccccc3C(=O)O)c(Cl)c1Cl)C2 [GERI-E3, Sodium R(+)-2-[(5,6-dichloro-2 3,9,9a-tetrahydro-3-oxo-9a-propyl-1H-fluoren-7-yl)oxymethyl]benzoate] | 7.9 µM | 3,335% | –
CCC[C@]12CCC(=O)C=C1c1c(cc(OCc3cccc(C(=O)O)c3)c(Cl)c1Cl)C2 [GERI-E4, Sodium R(+)-3-[(5,6-dichloro-2,3 9,9a-tetrahydro-3-oxo-9a-propyl-1H-fluoren-7-yl)oxymethyl]benzoate] | 7.8 µM | 3,378% | ~34 fold
CCC[C@]12CCC(=O)C=C1c1c(cc(OCc3ccc(C(=O)O)cc3)c(Cl)c1Cl)C2 [GERI-E5, Sodium R(+)-4-[(5,6-dichloro-2,3,9,9a-tetrahydro-3-oxo-9a-propyl-1H-fluoren-7-yl)oxymethyl]benzoate] | 8 µM | 3,294% | –
CCC[C@]12CCC(=O)C=C1c1c(cc(OCOC(C)=O)c(Cl)c1Cl)C2 [GERI-E13, R-(+)-7-(acetoxymethoxy)-5,6-dichloro-9a-propyl-2,3,9,9a-tetrahydro-1H-fluoren-3-one] | 19.2 µM | 1,372% | –
CCC[C@]12CCC(=O)C=C1c1c(cc(OC(C)=O)c(Cl)c1Cl)C2 [GERI-Est1, R-(+)-7-acetoxy-5,6-dichloro-9a-propyl-2,3,9,9a-tetrahydro-1H-fluoren-3-one] | 13.9 µM | 1,896% | –
CCC[C@]12CCC(=O)C=C1c1c(cc(OCC(=O)O)c(Cl)c1Cl)C2 [L-644,711, R(+)-[(5,6-dichloro-2,3,9,9a-tetrahydro-3-oxo-9a-propyl-1H-fluoren-7-yl)oxy]acetic acid, reference compound] | 264 µM | – | –
